Columns and labels:
[1] = test system: Septoria tritici (SEPTTR); experiment: One day protectant test against Septoria blotch of wheat; assay type: in vivo; details: wheat 'Yuma' seedlings, inoculated the day after treatment
Description: (§1) It will be understood by those in the art that the efficacy of the compounds against the foregoing fungi establishes the general utility of the compounds as fungicides. The activity of the compounds as effective fungicides was determined by applying the compounds to plants and observing control of fungal disease. The compounds were formulated at rates of 50 ppm and 200 ppm in 10 vol. % acetone plus 90 vol. % Triton X water (deionized water 99.99 wt %+0.01 wt % Triton X100), giving a “formulated test compound.” Formulated test compounds were applied to plants using a turntable sprayer fitted with two opposing air atomization nozzles which delivered approximately 1500 L/ha of spray volume.
(§2) Again referring to Table 1, tests were carried out to determine a given exemplary compound's ability to prevent or at least limit a fungal infection as follows. All plants in the study were inoculated with spores of the fungus in this case either PUCCRT or SEPTTR) the day after treatment with the putative fungicide. Next, the plants were incubated in an environment conducive to disease development. Disease severity was evaluated 7 to 25 days later, depending on the speed of disease development. The following experiments were performed in the laboratory to determine the fungicidal efficacy of the compounds of the invention.
Measuring the Preventative Effect of Various Compounds Against Septoria Blotch of Wheat (Causal Agent Bayer Code SEPTTR).
(§3) Each pot contained 3-10 seedlings. These plants were sprayed until wet with the formulated test compound. On the following day, the leaves were inoculated with an aqueous spore suspension of Septoria tritici and the plants were kept in high humidity (one day in a dark dew chamber followed by three days in a lighted dew chamber) to permit the spores to germinate and to infect the leaf. The plants were then transferred to a greenhouse until disease developed on untreated control plants. These tests were carried out using two different levels of the compound, 50 ppm and 200 ppm, see Table 1.
(§4) Disease control was determined by visually estimating the percent disease severity in treated and untreated pots 7 to 24 days after inoculation, depending on speed of disease development. Evaluations were typically made 7 or 8 days after inoculation for PUCCRT and 18 to 22 days after inoculation for SEPTTR. Percent disease control (% DC) was calculated by: % DC=(1−% Disease severity treated/% disease severity untreated)*100.

[2] = test system: Septoria tritici (SEPTTR); experiment: Three day curative test against Septoria blotch of wheat; assay type: in vivo; details: wheat 'Yuma' seedlings, treated three days after inoculation
Description: as §1
Measuring the Curative Effect of Various Compounds Against Septoria Blotch of Wheat (Causal Agent Bayer Code SEPTTR).
as §3, with “plants” for “plants were sprayed until wet with the formulated test compound. On the following day, the leaves”, “two” for “three”, “then removed form the dew chamber and allowed to dry. After drying, the inoculated plants were sprayed until wet with the formulated test compound. On the following day, the plants were” for “then”
as §4

[3] = test system: Puccinia recondita tritici (PUCCRT); experiment: One day protectant test against leaf rust of wheat; assay type: in vivo; details: wheat 'Yuma' seedlings, inoculated the day after treatment
Description: as §1, §2
Measuring the Protective Effect of Various Compounds Against Leaf Rust of Wheat (Causal Agent Bayer Code PUCCRT).
as §3, with “3-8” for “3-10”, “compounds.” for “compound.”, “Puccinia recondita” for “Septoria”, “overnight” for “(one day in a dark dew chamber followed by three days in a lighted dew chamber)”
as §4

Row | SMILES | Percent Disease Control, One Day Protectant, SEPTTR ([1]; 50 ppm spray) [%] | Percent Disease Control, One Day Protectant, SEPTTR ([1]; 200 ppm spray) [%] | Percent Disease Control, Three Day Curative, SEPTTR ([2]; 50 ppm spray) [%] | Percent Disease Control, Three Day Curative, SEPTTR ([2]; 200 ppm spray) [%] | Percent Disease Control, One Day Protectant, PUCCRT ([3]; 50 ppm spray) [%] | Percent Disease Control, One Day Protectant, PUCCRT ([3]; 200 ppm spray) [%] | melting point [°C]
1 | Clc1ccc(-c2nc(NC3CC3)ncc2Cl)cc1 [compound 7] | 91 | 61 | 50 | 50 | 53 | 0 | 
2 | Fc1cc(Cl)ccc1-c1ncc(Cl)c(NC2CC2)n1 [compound 4] | 38 | 86 | 0 | 18 | 50 | 99 | 
3 | Cc1ccc(-c2ncc(Cl)c(NC3CC3)n2)cc1 [compound 6] | 65 | 95 | 0 | 27 | 97 | 99 | 
4 | Clc1cnc(-c2ccccc2)nc1NC1CC1 [compound 5] | 38 | 90 | 0 | 0 | 99 | 99 | 
5 | Clc1ccc(-c2ncc(Cl)c(NC3CC3)n2)cc1Cl [compound 2] | 0 | 35 | 62 | 72 | 0 | 0 | 
6 | Clc1ccc(-c2ncc(Cl)c(NC3CC3)n2)cc1 [Example 1] | 90 | 97 | 0 | 0 | 93 | 97 | 103 to 105

From patent US8759356B2, “Compounds and methods for controlling fungi” (Dow AgroSciences, LLC., priority 2009, dated 2014)
